Experimental data as given in PubChem BioAssay (NCI).
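Growth conditions: 96-well plates. Treatment: test compound, 48 hours, 5 concentrations. Analysis: linear interpolation between bracketing concentrations; unreached endpoints set to highest concentration. At the TGI there is no net growth.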

Assays:
Assay in all cases: NCI tumour cell line growth inhibition, 48 h
RPMI-8226 leukemia = tested on: RPMI-8226 leukemia
HCC-2998 colon = tested on: HCC-2998 colon
COLO 205 colon = tested on: COLO 205 colon
A498 renal = tested on: A498 renal
UACC-62 melanoma = tested on: UACC-62 melanoma
NCI-H23 lung = tested on: NCI-H23 lung
HOP-18 NSCLC = tested on: HOP-18 NSCLC
HCT-15 colon = tested on: HCT-15 colon
TK-10 renal = tested on: TK-10 renal
HCT-116 colon = tested on: HCT-116 colon
XF 498 CNS = tested on: XF 498 CNS
RXF-631 renal = tested on: RXF-631 renal
CCRF-CEM leukemia = tested on: CCRF-CEM leukemia
SK-MEL-5 melanoma = tested on: SK-MEL-5 melanoma
OVCAR-3 ovarian = tested on: OVCAR-3 ovarian
U251 CNS = tested on: U251 CNS
LOX IMVI melanoma = tested on: LOX IMVI melanoma
M19-MEL melanoma = tested on: M19-MEL melanoma
OVCAR-5 ovarian = tested on: OVCAR-5 ovarian
MALME-3M melanoma = tested on: MALME-3M melanoma
SNB-19 CNS = tested on: SNB-19 CNS
LXFL 529 NSCLC = tested on: LXFL 529 NSCLC
SF-539 CNS = tested on: SF-539 CNS
SK-MEL-28 melanoma = tested on: SK-MEL-28 melanoma
M14 melanoma = tested on: M14 melanoma
DLD-1 colon = tested on: DLD-1 colon
ACHN renal = tested on: ACHN renal
SW-620 colon = tested on: SW-620 colon
UACC-257 melanoma = tested on: UACC-257 melanoma
SF-268 CNS = tested on: SF-268 CNS
SR leukemia = tested on: SR leukemia
OVCAR-8 ovarian = tested on: OVCAR-8 ovarian
NCI-H226 lung = tested on: NCI-H226 lung
K-562 leukemia = tested on: K-562 leukemia
UO-31 renal = tested on: UO-31 renal
IGROV1 ovarian = tested on: IGROV1 ovarian
SNB-75 CNS = tested on: SNB-75 CNS
A549 NSCLC = tested on: A549 NSCLC
NCI-H460 lung = tested on: NCI-H460 lung
HOP-62 NSCLC = tested on: HOP-62 NSCLC
OVCAR-4 ovarian = tested on: OVCAR-4 ovarian
DMS 114 small cell lung = tested on: DMS 114 small cell lung
SF-295 CNS = tested on: SF-295 CNS
HL-60(TB) leukemia = tested on: HL-60(TB) leukemia
SNB-78 CNS = tested on: SNB-78 CNS
DMS 273 small cell lung = tested on: DMS 273 small cell lung
RXF 393 renal = tested on: RXF 393 renal
KM12 colon = tested on: KM12 colon
SK-MEL-2 melanoma = tested on: SK-MEL-2 melanoma
HT29 colon = tested on: HT29 colon
MOLT-4 leukemia = tested on: MOLT-4 leukemia
786-0 renal = tested on: 786-0 renal
SK-OV-3 ovarian = tested on: SK-OV-3 ovarian
HOP-92 NSCLC = tested on: HOP-92 NSCLC
SN12C renal = tested on: SN12C renal
EKVX NSCLC = tested on: EKVX NSCLC
KM20L2 colon = tested on: KM20L2 colon
NCI-H522 lung = tested on: NCI-H522 lung

## O=c1cc(-c2cccs2)[nH]c2cc3c(cc12)OCO3
RPMI-8226 leukemia
  TGI: > 100 µM
HCC-2998 colon
  TGI: > 51.6 µM
COLO 205 colon
  TGI: > 100 µM
A498 renal
  TGI: 16.2 µM
UACC-62 melanoma
  TGI: > 25 µM
NCI-H23 lung
  TGI: > 100 µM
HOP-18 NSCLC
  TGI: > 100 µM
HCT-15 colon
  TGI: > 100 µM
TK-10 renal
  TGI: > 100 µM
HCT-116 colon
  TGI: > 100 µM
XF 498 CNS
  TGI: 15.3 µM
RXF-631 renal
  TGI: > 100 µM
CCRF-CEM leukemia
  TGI: > 100 µM
SK-MEL-5 melanoma
  TGI: > 31.9 µM
OVCAR-3 ovarian
  TGI: > 28.5 µM
U251 CNS
  TGI: > 60.2 µM
LOX IMVI melanoma
  TGI: > 100 µM
M19-MEL melanoma
  TGI: > 100 µM
OVCAR-5 ovarian
  TGI: > 100 µM
MALME-3M melanoma
  TGI: > 100 µM
SNB-19 CNS
  TGI: > 100 µM
LXFL 529 NSCLC
  TGI: > 100 µM
SF-539 CNS
  TGI: 12.7 µM
SK-MEL-28 melanoma
  TGI: > 100 µM
M14 melanoma
  TGI: > 100 µM
DLD-1 colon
  TGI: > 100 µM
ACHN renal
  TGI: > 100 µM
SW-620 colon
  TGI: > 100 µM
UACC-257 melanoma
  TGI: > 100 µM
SF-268 CNS
  TGI: > 100 µM
SR leukemia
  TGI: > 100 µM
OVCAR-8 ovarian
  TGI: 27.7 µM
NCI-H226 lung
  TGI: > 39.4 µM
K-562 leukemia
  TGI: > 100 µM
UO-31 renal
  TGI: > 100 µM
IGROV1 ovarian
  TGI: > 53.4 µM
SNB-75 CNS
  TGI: 6.63 µM
A549 NSCLC
  TGI: > 100 µM
NCI-H460 lung
  TGI: > 39.1 µM
HOP-62 NSCLC
  TGI: 39.4 µM
OVCAR-4 ovarian
  TGI: > 22.2 µM
DMS 114 small cell lung
  TGI: > 24.5 µM
SF-295 CNS
  TGI: > 49 µM
HL-60(TB) leukemia
  TGI: 40.1 µM
SNB-78 CNS
  TGI: > 100 µM
DMS 273 small cell lung
  TGI: > 100 µM
RXF 393 renal
  TGI: 8.38 µM
KM12 colon
  TGI: > 100 µM
SK-MEL-2 melanoma
  TGI: > 48 µM
HT29 colon
  TGI: > 74.7 µM
MOLT-4 leukemia
  TGI: > 100 µM
786-0 renal
  TGI: > 41.3 µM
SK-OV-3 ovarian
  TGI: 8.14 µM
HOP-92 NSCLC
  TGI: > 100 µM
SN12C renal
  TGI: > 100 µM
EKVX NSCLC
  TGI: > 100 µM
KM20L2 colon
  TGI: 41.3 µM
NCI-H522 lung
  TGI: 6.92 µM
